EC50 data for 17 compounds are collected here from US9566254B2, “Inhibitors and methods of inhibiting bacterial and viral pathogens” (priority 2010, dated 2017).

In the first assay the test system is vaccinia virus. Kind of assay: microbe, parasite or virus in culture. In kind it is cell-based. The following applies: Orthopoxvirus vaccinia, read-out: Avg Activity (VV).
For the compound `CC(C)C(=O)Nc1cccc(NC(=S)NC(=O)c2ccc(C(C)(C)C)cc2)c1` [Compound 57, 4-tert-butyl-N-[[3-(2-methylpropanoylamino)-phenyl]carbamothioyl]-benzamide], the EC50 was 1 to 10 µM.
As for `CC(C)(C)c1ccc(C(=O)NC(=S)Nc2ccccc2[N+](=O)[O-])cc1` [Compound 58, 4-tert-butyl-N-[(2-nitrophenyl)carbamothioyl]-benzamide], the EC50 lay within 1 to 10 µM.
Same read-out and setting: the figure for `Cc1ccc(NC(=S)NC(=O)c2ccc(C(C)(C)C)cc2)cc1` [Compound 59, 4-tert-butyl-N-(p-tolylcarbamothioyl)-benzamide] is 1 to 10 µM; for `CC(C)(C)c1ccc(C(=O)NC(=S)Nc2ccc(N)cc2)cc1` [Compound 60, N-[(4-aminophenyl)-carbamothioyl]-4-tert-butyl-benzamide] it is 1 to 10 µM; for `CC(C)(C)c1ccc(C(=O)NC(=S)Nc2ccccc2F)cc1` [Compound 61, 4-tert-butyl-N-[(2-fluorophenyl)carbamothioyl]-benzamide] it is 1 to 10 µM.
The same measure, in the same setting: the figure for `CCC(=O)Nc1cccc(NC(=S)NC(=O)c2ccc(C(C)(C)C)cc2)c1` [Compound 62, 4-tert-butyl-N-[[3-(propanoylamino)phenyl]-carbamothioyl]benzamide] is 1 to 10 µM; for `Cc1cccc(NC(=S)NC(=O)c2ccc(C(C)(C)C)cc2)c1` [Compound 63, 4-tert-butyl-N-(m-tolylcarbamothioyl)-benzamide] it is 1 to 10 µM.
On the same count and under the same terms, the figure for `CC(C)(C)c1ccc(C(=O)NC(=S)NC2CCCCC2)cc1` [Compound 64, 4-tert-butyl-N-(cyclohexyl-carbamothioyl)benzamide] is 1 to 10 µM; for `Cc1cc(C)cc(NC(=S)NC(=O)c2ccc(C(C)(C)C)cc2)c1` [Compound 65, 4-tert-butyl-N-[(3,5-dimethylphenyl)-carbamothioyl]benzamide] it is 1 to 10 µM; for `COc1cccc(NC(=S)NC(=O)c2ccc(C(C)(C)C)cc2)c1` [Compound 66, 4-tert-butyl-N-[(3-methoxyphenyl)-carbamothioyl]benzamide] it is 1 to 10 µM.
Take `Cc1ccc(C)c(NC(=S)NC(=O)c2ccc(C(C)(C)C)cc2)c1` [Compound 67, 4-tert-butyl-N-[(2,5-dimethylphenyl)-carbamothioyl]benzamide]: the EC50 lay within 1 to 10 µM.
Same read-out and setting: the figure for `COc1ccc(NC(=S)NC(=O)c2ccc(C(C)(C)C)cc2)cc1` [Compound 68, 4-tert-butyl-N-[(4-methoxyphenyl)-carbamothioyl]benzamide] is 1 to 10 µM; for `CC(C)(C)c1ccc(C(=O)NC(=S)Nc2ccc([N+](=O)[O-])cc2)cc1` [Compound 69, 4-tert-butyl-N-[(4-nitrophenyl)-carbamothioyl]benzamide] it is 1 to 10 µM.
Still for that read-out and setting: the figure for `Cc1cccc(C)c1NC(=S)NC(=O)c1ccc(C(C)(C)C)cc1` [Compound 71, 4-tert-butyl-N-[(2,6-dimethylphenyl)-carbamothioyl]benzamide] is 10 to 25 µM.
On the same count and under the same terms, the figure for `Cc1sc(NC(=S)NC(=O)c2ccc(C(C)(C)C)cc2)c(C#N)c1C` [Compound 72, 4-tert-butyl-N-[(3-cyano-4,5-dimethyl-2-thienyl)-carbamothioyl]benzamide] is 10 to 25 µM.
Consider `CCNC(=S)NC(=O)c1ccc(C(C)(C)C)cc1` [Compound 73, 4-tert-butyl-N-(ethylcarbamothioyl)-benzamide], for which the EC50 lay within 10 to 25 µM.

Still in this assay, the particulars now being: read-out: Avg Activity (VV).
In the case of “N-[3-[(4-tert-butylbenzoyl)-carbamothioylamino]phenyl]-2-chloro-benzamide [Compound 74]”, the EC50 is over 25 µM.

The subject of the next assay is Chlamydophila caviae. Kind of assay: microbe, parasite or virus in culture. The following applies: Chlamydia caviae, Vero, read-out: Avg Activity (C. Caviae). In kind it is cell-based.
As to `CC(C)C(=O)Nc1cccc(NC(=S)NC(=O)c2ccc(C(C)(C)C)cc2)c1` [Compound 57, 4-tert-butyl-N-[[3-(2-methylpropanoylamino)-phenyl]carbamothioyl]-benzamide], the EC50 was under 1 µM.
Still for that read-out and setting: the figure for `CC(C)(C)c1ccc(C(=O)NC(=S)Nc2ccccc2[N+](=O)[O-])cc1` [Compound 58, 4-tert-butyl-N-[(2-nitrophenyl)carbamothioyl]-benzamide] is under 1 µM; for `Cc1ccc(NC(=S)NC(=O)c2ccc(C(C)(C)C)cc2)cc1` [Compound 59, 4-tert-butyl-N-(p-tolylcarbamothioyl)-benzamide] it is under 1 µM; for `CC(C)(C)c1ccc(C(=O)NC(=S)Nc2ccc(N)cc2)cc1` [Compound 60, N-[(4-aminophenyl)-carbamothioyl]-4-tert-butyl-benzamide] it is under 1 µM.
As for `CC(C)(C)c1ccc(C(=O)NC(=S)Nc2ccccc2F)cc1` [Compound 61, 4-tert-butyl-N-[(2-fluorophenyl)carbamothioyl]-benzamide], the EC50 lay within 1 to 10 µM.
As for `CCC(=O)Nc1cccc(NC(=S)NC(=O)c2ccc(C(C)(C)C)cc2)c1` [Compound 62, 4-tert-butyl-N-[[3-(propanoylamino)phenyl]-carbamothioyl]benzamide], the EC50 fell in the range of 1 to 10 µM.
In the case of `Cc1cccc(NC(=S)NC(=O)c2ccc(C(C)(C)C)cc2)c1` [Compound 63, 4-tert-butyl-N-(m-tolylcarbamothioyl)-benzamide], the EC50 is 1 to 10 µM.
In the case of `CC(C)(C)c1ccc(C(=O)NC(=S)NC2CCCCC2)cc1` [Compound 64, 4-tert-butyl-N-(cyclohexyl-carbamothioyl)benzamide], the EC50 lay in the range of 1 to 10 µM.
For the compound `Cc1cc(C)cc(NC(=S)NC(=O)c2ccc(C(C)(C)C)cc2)c1` [Compound 65, 4-tert-butyl-N-[(3,5-dimethylphenyl)-carbamothioyl]benzamide], the EC50 fell in the range of 1 to 10 µM.
Take `COc1cccc(NC(=S)NC(=O)c2ccc(C(C)(C)C)cc2)c1` [Compound 66, 4-tert-butyl-N-[(3-methoxyphenyl)-carbamothioyl]benzamide]: the EC50 is under 1 µM.
Same read-out and setting: the figure for `Cc1ccc(C)c(NC(=S)NC(=O)c2ccc(C(C)(C)C)cc2)c1` [Compound 67, 4-tert-butyl-N-[(2,5-dimethylphenyl)-carbamothioyl]benzamide] is under 1 µM.
Still for that read-out and setting: the figure for `COc1ccc(NC(=S)NC(=O)c2ccc(C(C)(C)C)cc2)cc1` [Compound 68, 4-tert-butyl-N-[(4-methoxyphenyl)-carbamothioyl]benzamide] is 1 to 10 µM; for `CC(C)(C)c1ccc(C(=O)NC(=S)Nc2ccc([N+](=O)[O-])cc2)cc1` [Compound 69, 4-tert-butyl-N-[(4-nitrophenyl)-carbamothioyl]benzamide] it is over 25 µM; for `Cc1cccc(C)c1NC(=S)NC(=O)c1ccc(C(C)(C)C)cc1` [Compound 71, 4-tert-butyl-N-[(2,6-dimethylphenyl)-carbamothioyl]benzamide] it is under 1 µM.
On the same count and under the same terms, the figure for `Cc1sc(NC(=S)NC(=O)c2ccc(C(C)(C)C)cc2)c(C#N)c1C` [Compound 72, 4-tert-butyl-N-[(3-cyano-4,5-dimethyl-2-thienyl)-carbamothioyl]benzamide] is 10 to 25 µM.
Consider `CCNC(=S)NC(=O)c1ccc(C(C)(C)C)cc1` [Compound 73, 4-tert-butyl-N-(ethylcarbamothioyl)-benzamide], for which the EC50 is over 25 µM.

The same assay, now with this note: read-out: Avg Activity (C. Caviae).
In the case of “N-[3-[(4-tert-butylbenzoyl)-carbamothioylamino]phenyl]-2-chloro-benzamide [Compound 74]”, the EC50 is over 25 µM.

For a further assay, the system named is La Crosse virus (LACV). Kind of assay: microbe, parasite or virus in culture. In kind it is cell-based. The following applies: La Crosse virus, Vero, read-out: Avg Activity (LACV).
As for `CC(C)C(=O)Nc1cccc(NC(=S)NC(=O)c2ccc(C(C)(C)C)cc2)c1` [Compound 57, 4-tert-butyl-N-[[3-(2-methylpropanoylamino)-phenyl]carbamothioyl]-benzamide], the EC50 fell in the range of 1 to 10 µM.
With `CC(C)(C)c1ccc(C(=O)NC(=S)Nc2ccccc2[N+](=O)[O-])cc1` [Compound 58, 4-tert-butyl-N-[(2-nitrophenyl)carbamothioyl]-benzamide], the EC50 was in the range of 1 to 10 µM.
Still for that read-out and setting: the figure for `Cc1ccc(NC(=S)NC(=O)c2ccc(C(C)(C)C)cc2)cc1` [Compound 59, 4-tert-butyl-N-(p-tolylcarbamothioyl)-benzamide] is 1 to 10 µM.
Still for that read-out and setting: the figure for `CC(C)(C)c1ccc(C(=O)NC(=S)Nc2ccc(N)cc2)cc1` [Compound 60, N-[(4-aminophenyl)-carbamothioyl]-4-tert-butyl-benzamide] is 1 to 10 µM; for `CC(C)(C)c1ccc(C(=O)NC(=S)Nc2ccccc2F)cc1` [Compound 61, 4-tert-butyl-N-[(2-fluorophenyl)carbamothioyl]-benzamide] it is 1 to 10 µM; for `CCC(=O)Nc1cccc(NC(=S)NC(=O)c2ccc(C(C)(C)C)cc2)c1` [Compound 62, 4-tert-butyl-N-[[3-(propanoylamino)phenyl]-carbamothioyl]benzamide] it is 1 to 10 µM.
Still for that read-out and setting: the figure for `Cc1cccc(NC(=S)NC(=O)c2ccc(C(C)(C)C)cc2)c1` [Compound 63, 4-tert-butyl-N-(m-tolylcarbamothioyl)-benzamide] is 1 to 10 µM.
With `CC(C)(C)c1ccc(C(=O)NC(=S)NC2CCCCC2)cc1` [Compound 64, 4-tert-butyl-N-(cyclohexyl-carbamothioyl)benzamide], the EC50 was in the range of 1 to 10 µM.
Same read-out and setting: the figure for `Cc1cc(C)cc(NC(=S)NC(=O)c2ccc(C(C)(C)C)cc2)c1` [Compound 65, 4-tert-butyl-N-[(3,5-dimethylphenyl)-carbamothioyl]benzamide] is 1 to 10 µM.
Consider `COc1cccc(NC(=S)NC(=O)c2ccc(C(C)(C)C)cc2)c1` [Compound 66, 4-tert-butyl-N-[(3-methoxyphenyl)-carbamothioyl]benzamide], for which the EC50 was over 25 µM.
As to `Cc1ccc(C)c(NC(=S)NC(=O)c2ccc(C(C)(C)C)cc2)c1` [Compound 67, 4-tert-butyl-N-[(2,5-dimethylphenyl)-carbamothioyl]benzamide], the EC50 was over 25 µM.
On the same count and under the same terms, the figure for `COc1ccc(NC(=S)NC(=O)c2ccc(C(C)(C)C)cc2)cc1` [Compound 68, 4-tert-butyl-N-[(4-methoxyphenyl)-carbamothioyl]benzamide] is over 25 µM; for `CC(C)(C)c1ccc(C(=O)NC(=S)Nc2ccc([N+](=O)[O-])cc2)cc1` [Compound 69, 4-tert-butyl-N-[(4-nitrophenyl)-carbamothioyl]benzamide] it is over 25 µM.
The same measure, in the same setting: the figure for `Cc1cccc(C)c1NC(=S)NC(=O)c1ccc(C(C)(C)C)cc1` [Compound 71, 4-tert-butyl-N-[(2,6-dimethylphenyl)-carbamothioyl]benzamide] is over 25 µM; for `Cc1sc(NC(=S)NC(=O)c2ccc(C(C)(C)C)cc2)c(C#N)c1C` [Compound 72, 4-tert-butyl-N-[(3-cyano-4,5-dimethyl-2-thienyl)-carbamothioyl]benzamide] it is over 25 µM; for `CCNC(=S)NC(=O)c1ccc(C(C)(C)C)cc1` [Compound 73, 4-tert-butyl-N-(ethylcarbamothioyl)-benzamide] it is over 25 µM.

Staying with this assay, now noted: read-out: Avg Activity (LACV).
For “N-[3-[(4-tert-butylbenzoyl)-carbamothioylamino]phenyl]-2-chloro-benzamide [Compound 74]”, the EC50 was in the range of 1 to 10 µM.
